Data on 5 compounds can be found in patent US4460781A, “4-(2-Benzoylphenyl-1-pyazole and 4-(2-benzoylphenyl)-1-pyrazoline derivatives” (Hoffmann-La Roche Inc., priority 1983, dated 1984).

Some results are limits rather than exact numbers.

What is called LD50 is the dose expected to kill half of the subjects tested. By minimal effective dose is commonly meant the smallest amount tested that counted as effective. Low values mean greater potency, high ones weaker potency.

A short description of one data set: Toxicity (LD50) (PO). The conditions noted are these: in vivo.
The test system of another data set is male mice. Put plainly: Inclined Screen (paralyzing effects, sliding off the screen). The format is in vivo. The conditions noted are these: Mus musculus, groups of 6, at least 4 hours, maximum dose of 500 mg/kg, read-out: Inclined Screen (PD50). On the procedure: Groups of 6 male mice are given the test drug (maximum dose of 500 mg/kg) and then are left on the inclined screen at least 4 hours for observation of paralyzing effects severe enough to cause them to slide off the screen. If activity is observed, additional doses are taken until at least two are reached at which some, but not all of the animals slide off the screen. Doses at which mice fall off the screen due to toxicity or excitation are not included in the calculation of PD50.

The next data set relates to Cats. Put plainly: Unanesthetized Cat (minimum symptoms, usually ataxia). The format is in vivo. The conditions noted are these: Felis catus, po, cats treated orally. On the procedure:
Cats are treated orally and observed for minimum symptoms--usually ataxia. One cat is used at a dose of 50 mg/kg. If activity is present, up to three cats/dose are used. Results are given as minimum effective dose.

The test system of another data set is mice. Put plainly: Footshock (blocking of shock-elicited fighting in pairs of mice). The format is in vivo. The conditions noted are these: Mus musculus, pretreated 1 hour, 3 out of 3 pairs blocked from fighting, maximum of 100 mg/kg, read-out: Footshock (100% blocking dose). On the procedure:
A pair of mice is confined under a one liter beaker placed on a grid which presents shock to the feet. At least 5 fighting episodes are elicited in a two-minute period. Pairs of mice are marked and pretreated 1 hour to a second shocking. Logarithmic dose intervals are utilized up to a maximum of 100 mg/kg. At the 100% blocking dose, 3 out of 3 pairs must be blocked from fighting.

`Cc1[nH]nc2c1-c1ccc([N+](=O)[O-])cc1C(c1ccccc1Cl)=NC2` [6-(2-Chlorophenyl)-3-methyl-8-nitro-2H,4H-pyrazolo[3,4-d][2]benzazepine] registered an LD50 in “Toxicity (LD50) (PO)” of more than 1000 mg/kg. For the same compound, the ED50 with male mice is 400 mg/kg. Moreover, the minimal effective dose in the data set with Cats was 250 mg/kg.
The compound `OCCn1cc2c(n1)CN=C(c1ccccc1)c1cc(Cl)ccc1-2` [8-Chloro-2-(2-hydroxyethyl)-6-phenyl-2H,4H-pyrazolo[3,4-d][2]benzazepine] gave an LD50 in “Toxicity (LD50) (PO)” of 750 mg/kg. Also, the ED100 with mice stood at 100 mg/kg. Also, the ED50 in the data set with male mice came to 40 mg/kg. In the data set on Cats, the minimal effective dose was 20 mg/kg.
In turn, `Clc1ccc2c(c1)C(c1ccccc1Cl)=NCc1n[nH]cc1-2` [8-Chloro-6-(2-chlorophenyl)-2H,4H-pyrazolo[3,4-d][2]benzazepine] registered an LD50 in “Toxicity (LD50) (PO)” of 800 mg/kg. Further, in the data set with mice, the ED100 is 25 mg/kg. Moreover, in the data set with male mice, the ED50 stood at 143 mg/kg. Also, the minimal effective dose with Cats worked out at 10 mg/kg.
In turn, `Fc1ccccc1C1=NCc2n[nH]cc2-c2ccc(Cl)cc21` [8-Chloro-6-(2-fluorophenyl)-2H,4H-pyrazolo[3,4-d][2]benzazepine] showed an LD50 in the data set “Toxicity (LD50) (PO)” of 760 mg/kg. The ED100 with mice was 25 mg/kg. In addition, in the data set with male mice, the ED50 worked out at 66 mg/kg. In the data set on Cats, this compound displayed a minimal effective dose of 2 mg/kg.
Turning to `CNC(=O)n1cc2c(n1)CN=C(c1ccccc1)c1cc(Cl)ccc1-2` [8-Chloro-N-methyl-6-phenyl-2H,4H-pyrazolo[3,4-d][2]benzazepine-2-carboxamide], the ED100 in the data set on mice is 25 mg/kg. The ED50 in the data set on male mice is 400 mg/kg. Further, the minimal effective dose with Cats worked out at 20 mg/kg.
